# Experimental data from patent publication US12637418B2, “Heterocyclic compounds as antagonist of NMDA” (TAKEDA PHARMACEUTICAL COMPANY LIMITED, priority 2019, dated 2026).
# Target: NMDA receptor composed of four subunits including 2 sets of heterodimers of NR1 and NR2B (human GRIN1 and GRIN2B expressed in HEK293 cell) (Homo sapiens, UniProt Q13224)
# Experiment: NR2B Ca^2+ influx assay
# Assay type: cell-based
# Conditions: 10 μM final compound concentration; 30 μM glutamic acid and 30 μM glycine; HEK293 cells expressing GRIN1 and GRIN2B; Fluo-4 fluorescence
# Text: To confirm the “antagonistic action on an NMDA receptor containing the NR2B subunit” of the compound of the present invention, human embryonic kidney cell expressing the “NMDA receptor composed of four subunits including 2 sets of heterodimers of NR1 and NR2B”, specifically HEK293 cell expressing human glutamate ionotropic receptor NMDA type subunit 1 (GRIN1) and human glutamate ionotropic receptor NMDA type subunit 2B (GRIN2B), was used and the activation suppressive effect on the receptors was measured.
# HEK293 cells that express GRIN1 and GRIN2B were purchased from ChanTest (Human NMDA (NR1/NR2B) Receptor-expressing, stable replicating cell line (HEK293) catalog No. CT6121).
# As an index of the NMDA receptor activation, intracellular calcium ion (Ca^2+) influx caused by the binding of glycine and glutamic acid with NR1 and NR2B, respectively, was used.
# HEK293 cells that express GRIN1 and GRIN2B were cultured in DMEM/F-12 (COSMO BIO, 10-092-CM) medium added with 10% FBS (fetal bovine serum, AusGene), 100 units/mL penicillin, 100 μg/mL streptomycin, 500 μg/mL neomycin, 100 μg/mL Zeocin (registered trade mark, Invitrogen), 5 μg/mL Blasticidin in a cell culture flask in an incubator (under 37° C., 5% CO2).
# The cells were detached from the flask with trypsin the day before the assay, suspended in a seeding medium (DMEM (Invitrogen, 31053) added with 10% FBS, 100 units/mL penicillin, 100 μg/mL streptomycin) at 8×10^5 cells/mL, seeded by 25 μL per well in a 384-well plate (Falcon, 356663) at 20000 cells/well, and cultured overnight in an incubator. On the day of the assay, tetracycline (Wako Pure Chemical Industries, Ltd., 209-16561) was diluted with the seeding medium at 2 μg/mL, added at 25 μL/well to the plate seeded with the cells, and cultured for 2 hr in an incubator. Thereafter, the medium was removed, and the cells were washed with 50 μL/well assay buffer (137 mM NaCl, 4 mM KCl, 1.8 mM CaCl2, 10 mM HEPES (pH 7.2), 10 mM Glucose, 0.1% BSA). Then, a loading buffer (assay buffer added with 2.5 μM Fluo-4AM, 2 mM Amaranth, 1 mM Tartrazine) was added at 25 μL/well, and the cells were incubated in the incubator for 30 min, and at room temperature for 15 min. A solution of the Example compound diluted with the above-mentioned assay buffer at 30 μM (final concentration 10 μM) was added at 25 μL/well, and the cells were left standing for 15 min at room temperature. Using FDSS7000EX/μCELL (Hamamatsu Photonics K.K.), an assay buffer containing 30 μM glutamic acid and 30 μM glycine was added at 25 μL/well, and fluorescence signals with wavelengths of Excitation 480 nm and Emission 540 nm were measured every 3 seconds for 5 min. The inhibitory activity was calculated as a relative activity value (inhibitory rate) that inhibits 100% of the cumulative value of the fluorescence value of a well added with an assay buffer free of glutamic acid, glycine, relative to the cumulative value of the fluorescence value of each well.
# Chain of NMDA receptor composed of four subunits including 2 sets of heterodimers of NR1 and NR2B (human GRIN1 and GRIN2B expressed in HEK293 cell) (Q13224 27-1484, other chains not shown): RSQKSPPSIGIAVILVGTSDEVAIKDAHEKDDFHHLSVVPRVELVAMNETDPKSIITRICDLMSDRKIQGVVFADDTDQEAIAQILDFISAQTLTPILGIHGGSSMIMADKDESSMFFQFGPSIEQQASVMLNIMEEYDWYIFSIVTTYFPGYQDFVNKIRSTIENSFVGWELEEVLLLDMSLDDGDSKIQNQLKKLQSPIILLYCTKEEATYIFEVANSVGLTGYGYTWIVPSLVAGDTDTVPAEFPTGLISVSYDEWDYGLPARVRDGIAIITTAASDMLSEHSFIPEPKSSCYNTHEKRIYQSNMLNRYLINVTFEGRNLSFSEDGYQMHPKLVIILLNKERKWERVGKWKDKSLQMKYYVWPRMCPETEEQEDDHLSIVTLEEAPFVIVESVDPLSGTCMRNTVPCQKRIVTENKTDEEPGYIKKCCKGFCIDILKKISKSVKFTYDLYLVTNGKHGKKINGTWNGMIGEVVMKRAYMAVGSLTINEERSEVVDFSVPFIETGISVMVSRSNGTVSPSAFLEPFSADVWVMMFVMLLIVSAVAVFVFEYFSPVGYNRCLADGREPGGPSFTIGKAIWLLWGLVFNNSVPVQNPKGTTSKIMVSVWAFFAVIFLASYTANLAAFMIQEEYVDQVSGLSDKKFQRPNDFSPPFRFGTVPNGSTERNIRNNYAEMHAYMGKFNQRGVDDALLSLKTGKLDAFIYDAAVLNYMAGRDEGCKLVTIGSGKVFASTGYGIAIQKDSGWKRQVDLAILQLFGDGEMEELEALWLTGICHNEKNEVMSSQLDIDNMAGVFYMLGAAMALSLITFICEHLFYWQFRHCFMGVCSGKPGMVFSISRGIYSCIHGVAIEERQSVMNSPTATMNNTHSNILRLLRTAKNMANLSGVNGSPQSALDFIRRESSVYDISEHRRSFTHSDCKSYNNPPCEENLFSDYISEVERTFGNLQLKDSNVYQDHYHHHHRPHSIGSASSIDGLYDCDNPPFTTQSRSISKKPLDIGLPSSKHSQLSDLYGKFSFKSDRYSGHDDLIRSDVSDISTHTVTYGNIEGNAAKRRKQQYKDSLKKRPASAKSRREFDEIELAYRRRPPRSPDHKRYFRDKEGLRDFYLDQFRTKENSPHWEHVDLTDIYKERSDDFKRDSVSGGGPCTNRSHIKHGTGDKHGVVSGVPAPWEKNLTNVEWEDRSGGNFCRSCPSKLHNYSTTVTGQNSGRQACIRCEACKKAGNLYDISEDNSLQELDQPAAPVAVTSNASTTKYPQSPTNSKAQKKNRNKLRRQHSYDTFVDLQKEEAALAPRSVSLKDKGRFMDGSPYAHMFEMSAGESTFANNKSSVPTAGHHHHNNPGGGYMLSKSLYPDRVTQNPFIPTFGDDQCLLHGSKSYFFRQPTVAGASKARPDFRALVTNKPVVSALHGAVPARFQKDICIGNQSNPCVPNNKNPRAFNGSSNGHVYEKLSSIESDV
row,Compound,inhibitory rate (10 μM compound concentration)
1,"COc1cnc(C#N)cc1CNC(=O)c1ccc(OC(F)(F)F)cc1 [Example 29, N-[(2-cyano-5-methoxypyridin-4-yl)methyl]-4-(trifluoromethoxy)-bezamide]",92
2,"COc1cnc(C#N)cc1CNC(=O)c1ccc(C(F)(F)F)c(F)c1 [Example 30, N-[(2-cyano-5-methoxypyridin-4-yl)methyl]-3-fluoro-4-(trifluoromethyl)-bezamide]",87

# Same assay, conditions: 10 μM final compound concentration; 30 μM glutamic acid and 30 μM glycine; HEK293 cells expressing GRIN1 and GRIN2B; Fluo-4 fluorescence; read-out: inhibitory rate (10 μM compound concentration)
row,inhibition at 10 µM [%],Compound
1,86,"N#Cc1ccc(Br)c(CNC(=O)c2ccc(OC(F)(F)F)c(F)c2)c1 [Example 1, N-[(2-bromo-5-cyanophenyl)methyl]-3-fluoro-4-(trifluoromethoxy)benzamide]"
2,92,"N#Cc1ccc(Br)c(CNC(=O)c2cnc(OC(F)F)c(F)c2)c1 [Example 2, N-[(2-bromo-5-cyanophenyl)methyl]-6-(difluoromethoxy)-5-fluoropyridine-3-carboxamide]"
3,93,"N#Cc1ccc(Br)c(CNC(=O)c2ccc(OC(F)F)c(F)c2)c1 [Example 3, N-[(2-bromo-5-cyanophenyl)methyl]-4-(difluoromethoxy)-3-fluorobenzamide]"
4,94,"N#Cc1ccc(C2CC2)c(CNC(=O)c2ccc(OC(F)(F)F)c(F)c2)c1 [Example 4, N-[(5-cyano-2-cyclopropylphenyl)-methyl]-3-fluoro-4 (trifluoromethoxy)-benzamide]"
5,95,"N#Cc1ccc(C2CC2)c(CNC(=O)c2cnc(OC(F)F)c(F)c2)c1 [Example 5, N-[(5-cyano-2-cyclopropylphenyl)-methyl]-6-(difluoromethoxy)-5-fluoropyridine-3-carboxamide]"
6,93,"N#Cc1ccc(C2CC2)c(CNC(=O)c2ccc(OC(F)F)c(F)c2)c1 [Example 6, N-[(5-cyano-2-cyclopropylphenyl)-methyl]-4-(difluoromethoxy)-3-fluorobenzamide]"
7,94,"COc1ccc(C#N)cc1CNC(=O)c1cnc(OC(F)F)c(F)c1 [Example 7, N-[(5-cyano-2-methoxyphenyl)methyl]-6-(difluoromethoxy)-5-fluoropyridine-3-carboxamide]"
8,83,"Cc1ccc(C#N)cc1CNC(=O)c1cnc(OC(F)F)c(F)c1 [Example 8, N-[(5-cyano-2-methylphenyl)-methyl]-6-(difluoromethoxy)-5-fluoropyridine-3-carboxamide]"
9,95,"COc1ccc(C#N)cc1CNC(=O)c1ccc(OC(F)F)c(F)c1 [Example 10, N-[(5-cyano-2-methoxyphenyl)-methyl]-4-(difluoromethoxy)-3-fluorobenzamide]"
10,96,"COc1ccc(C#N)cc1CNC(=O)c1ccc(OC(F)(F)F)c(F)c1 [Example 11, N-[(5-cyano-2-methoxyphenyl)-methyl]-3-fluoro-4-(trifluoromethoxy)-benzamide]"
11,91,"N#Cc1ccc(F)c(CNC(=O)c2cnc(OC(F)F)c(F)c2)c1 [Example 12, N-[(5-cyano-2-fluorophenyl)methyl]-6-(difluoromethoxy)-5-fluoropyridine-3-carboxamide]"
12,93,"N#Cc1ccc(OCC(F)(F)F)c(CNC(=O)c2cnc(OC(F)F)c(F)c2)c1 [Example 13, N-{[5-cyano-2-(2,2,2-trifluoroethoxy)-phenyl]-methyl}-6-(difluoromethoxy)-5-fluoropyridine-3-carboxamide]"
13,92,"N#Cc1ccc(OCC(F)F)c(CNC(=O)c2cnc(OC(F)F)c(F)c2)c1 [Example 14, N-{[5-cyano-2-(2,2-difluoroethoxy)-phenyl]-methyl}-6-(difluoromethoxy)-5-fluoropyridine-3-carboxamide]"
14,89,"COc1c(C#N)ccc(F)c1CNC(=O)c1cnc(OC(F)F)c(F)c1 [Example 15, N-[(3-cyano-6-fluoro-2-methoxyphenyl)-methyl]-(difluoromethoxy)-5-fluoropyridine-3-carboxamide]"
15,94,"COc1ncc(C#N)cc1CNC(=O)c1ccc(C(F)(F)F)s1 [Example 16, N-[(5-cyano-2-methoxypyridin-3-yl)methyl]-5-(trifluoromethyl)thiophene-2-carboxamide]"
16,66,"Cc1c(C#N)ccc(F)c1CNC(=O)c1cnc(OC(F)F)c(F)c1 [Example 18, N-[(3-cyano-6-fluoro-2-methylphenyl)-methyl]-6-(difluoromethoxy)-5-fluoropyridine-3-carboxamide]"
17,89,"COc1ccc(C#N)nc1CNC(=O)c1cnc(OC(F)F)c(F)c1 [Example 19, N-[(6-cyano-3-methoxypyridin-2-yl)methyl]-6-(difluoromethoxy)-5-fluoropyridine-3-carboxamide]"
18,97,"COc1c(F)cc(C#N)cc1CNC(=O)c1cnc(OC(F)F)c(F)c1 [Example 20, N-[(5-cyano-3-fluoro-2-methoxyphenyl)-methyl]-6-(difluoromethoxy)-5-fluoropyridine-3-carboxamide]"
19,94,"COc1ncc(C(=O)NCc2cc(C#N)cc(F)c2OC)cc1F [Example 21, N-[(5-cyano-3-fluoro-2-methoxyphenyl)-methyl]-5-fluoro-6-methoxypyridine-3-carboxamide]"
20,94,"COc1cnc(C#N)c(F)c1CNC(=O)c1cnc(OC(F)F)c(F)c1 [Example 22, N-[(2-cyano-3-fluoro-5-methoxypyridin-4-yl)methyl]-6-(difluoromethoxy)-5-fluoropyridine-3-carboxamide]"
21,98,"COc1cc(F)c(C#N)cc1CNC(=O)c1cnc(OC(F)F)c(F)c1 [Example 23, N-[(5-cyano-4-fluoro-2-methoxyphenyl)-methyl]-6-(difluoromethoxy)-5-fluoropyridine-3-carboxamide]"
22,97,"COc1cc(C#N)cc(CNC(=O)c2cnc(OC(F)F)c(F)c2)c1 [Example 24, N-[(3-cyano-5-methoxyphenyl)-methyl]-6-(difluoromethoxy)-5-fluoropyridine-3-carboxamide]"
23,89,"COc1cc(C#N)cc(CNC(=O)c2cnc(OC(F)F)c(F)c2)c1F [Example 25, N-[(5-cyano-2-fluoro-3-methoxyphenyl)-methyl]-6-(difluoromethoxy)-5-fluoropyridine-3-carboxamide]"
24,75,"COc1cc(C#N)cc(CNC(=O)c2cnc(OC)c(F)c2)c1F [Example 26, N-[(5-cyano-2-fluoro-3-methoxyphenyl)-methyl]-5-fluoro-6-methoxypyridine-3-carboxamide]"
25,77,"COc1c(CNC(=O)c2cnc(OC(F)F)c(F)c2)cc(C#N)nc1C [Example 27, N-[(6-cyano-3-methoxy-2-methyl-pyridin-4-yl)methyl]-6-(difluoromethoxy)-5-fluoropyridine-3-carboxamide]"
26,91,"COc1cnc(C#N)cc1CNC(=O)c1cnc(OC(F)F)c(F)c1 [Example 28, N-[(2-cyano-5-methoxypyridin-4-yl)methyl]-6-(difluoromethoxy)-5-fluoropyridine-3-carboxamide]"

# Test system: not given
# Experiment: not given
# Conditions: rodents; cited from earlier work
row,Compound,number of occurrence and depth of cortical spreading depression
1,C[C@@H](CN1CCC(Cc2ccccc2)CC1)[C@@H](O)c1ccc(O)cc1 [Ro25-6981],suppress the number of occurrence and the depth of cortical spreading depression
